In the supplement of paper PMC11208160:

Experiment: recombinant barcode read abundance after kanamycin selection (control-corrected) (log10(CPM+1)); higher = more efficient recombination; sequences stand for … in AGTGCAGAGAAAATCGGCCAGTTTTCTCTGCCTGCAGTCCGCATGCCGT…AGATTTATGCAGCGGACTGCCTTTCTCCCAAAGTGATAAACCGGACAGTATCATGGACCGGTTTTCCCGGTAATCCGTATTTGCAAGGTTGGTTTCACT; site = the 11-nt target
Outline: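 For this pooled screen, each oligo contained a promoter, a target, a barcode and the J23119-driven first 104 bases of the bridge RNA. Gibson cloning placed it into a vector supplying the remaining 73 bp and a T7-inducible recombinase, and the pool was co-electroporated into E. coli with a donor plasmid. Recombination efficiency is derived from barcode counts per million at recombinant junctions after averaging and control correction, and is expressed on a log scale as log10(CPM+1), with selection on chloramphenicol/ampicillin/kanamycin plus 0.1 mM IPTG against a chloramphenicol/ampicillin LB agar control.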
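Note: IS621 recombinase and bridge RNA in Escherichia coli cells.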

Row | Sequence | recombinant barcode read abundance (log10)
1 | AGTGCTCCTTGGGTTCTAACCTGTTGCGG (site AGTGCTCCTCC) | 0.18
2 | AGTGTCACTTGGGTTCTAACCTGTTGCGG (site AGTGTCACTCC) | 2.77
3 | AGTGTCACTTGGGTTCTAACCTGTTGCGG (site GTGCAACCTAG) | 0.0283
4 | AGTTAATCTTGGGTTCTAACCTGTTGCTT (site AGCTACTCTAA) | 0.0347
5 | AGTTAATCTTGGGTTCTAACCTGTTGCTT (site AGTTAATCTAA) | 0.0371
6 | AGTTAGTCTTGGGTTCTAACCTGTTGCGG (site AATTAGTCTCC) | 0.00949
7 | AGTTAGTCTTGGGTTCTAACCTGTTGCGG (site AGTTAGTCTCC) | 1.43
8 | AGTTGCTCTTGGGTTCTAACCTGTTGCCT (site AGTTGCTCTAG) | 0.468
9 | AGTTGCTCTTGGGTTCTAACCTGTTGCCT (site GGTTGCACTAG) | 0.268
10 | AGTTGTCCTTGGGTTCTAACCTGTTGCGT (site AGTTGTCCTAA) | 0.121
11 | AGTTGTCCTTGGGTTCTAACCTGTTGCGT (site AGTTGTCCTAC) | 1.21
12 | AGTTGTCCTTGGGTTCTAACCTGTTGCGT (site AGTTGTCCTAG) | 0.108
13 | AGTTGTCCTTGGGTTCTAACCTGTTGCGT (site AGTTGTCCTAT) | 0.251
14 | AGTTTCACTTGGGTTCTAACCTGTTGCTA (site AGTTTCACTTA) | 0.111
15 | AGTTTCACTTGGGTTCTAACCTGTTGCTA (site GCCAAGGCTAG) | 1.31
16 | AGTTTCGCTTGGGTTCTAACCTGTTGCGG (site AGTATCGCTCC) | 0.215
17 | AGTTTCGCTTGGGTTCTAACCTGTTGCGG (site AGTCTCGCTCC) | 0.0337
18 | AGTTTCGCTTGGGTTCTAACCTGTTGCGG (site AGTGTCGCTCC) | 0.0655
19 | AGTTTCGCTTGGGTTCTAACCTGTTGCGG (site AGTTTCGCTCC) | 0.0842
20 | ATAAGAGCTTGGGTTCTAACCTGTTGCCT (site ATAAAAGCTAG) | 0.385
21 | ATAAGAGCTTGGGTTCTAACCTGTTGCCT (site ATAACAGCTAG) | 0.0202
22 | ATAAGAGCTTGGGTTCTAACCTGTTGCCT (site ATAAGAGCTAG) | 1.15

Row | Sequence | recombinant barcode read abundance (log10)
23 | ATAAGAGCTTGGGTTCTAACCTGTTGCCT (site ATAATAGCTAG) | 0.179
24 | ATAAGCTCTTGGGTTCTAACCTGTTGCCG (site ATAAGCTCTCG) | 1.92
25 | ATAAGCTCTTGGGTTCTAACCTGTTGCCG (site GAGCAACCTAA) | 0.0688
26 | ATAAGTCCTTGGGTTCTAACCTGTTGCGA (site ACAAGTCCTCC) | 0.869
27 | ATAAGTCCTTGGGTTCTAACCTGTTGCGA (site ATAAGTCCTTC) | 2.14
28 | ATAATACCTTGGGTTCTAACCTGTTGCCT (site ACAATACCTAG) | 0.135
29 | ATAATACCTTGGGTTCTAACCTGTTGCCT (site ATAATACCTAG) | 1.4
30 | ATAATAGCTTGGGTTCTAACCTGTTGCCT (site ATAAAAGCTAG) | 0.0804
31 | ATAATAGCTTGGGTTCTAACCTGTTGCCT (site ATAACAGCTAG) | 0.0342
32 | ATAATAGCTTGGGTTCTAACCTGTTGCCT (site ATAAGAGCTAG) | 0.0465
33 | ATAATAGCTTGGGTTCTAACCTGTTGCCT (site ATAATAGCTAG) | 1.63
34 | ATACCACCTTGGGTTCTAACCTGTTGCCT (site AAACCACCTAG) | 0.278
35 | ATACCACCTTGGGTTCTAACCTGTTGCCT (site ACACCACCTAG) | 1.24
36 | ATACCACCTTGGGTTCTAACCTGTTGCCT (site AGACCACCTAG) | 0.431
37 | ATACCACCTTGGGTTCTAACCTGTTGCCT (site ATACCACCTAG) | 1.77
38 | ATACCTCCTTGGGTTCTAACCTGTTGCCT (site ATACCTCCTAG) | 1.69
39 | ATACCTCCTTGGGTTCTAACCTGTTGCCT (site CTAACTCCTAG) | 0.148
40 | ATACGTCCTTGGGTTCTAACCTGTTGCAT (site AGACGTCCTAC) | 0.224
41 | ATACGTCCTTGGGTTCTAACCTGTTGCAT (site ATACGTCCTAT) | 1.12
42 | ATAGCCACTTGGGTTCTAACCTGTTGCCT (site ATAGCAACTAG) | 0.141
43 | ATAGCCACTTGGGTTCTAACCTGTTGCCT (site ATAGCCACTAG) | 1.02
44 | ATAGCCACTTGGGTTCTAACCTGTTGCCT (site ATAGCGACTAG) | 0.0246

Row | Sequence | recombinant barcode read abundance (log10)
45 | ATAGCCACTTGGGTTCTAACCTGTTGCCT (site ATAGCTACTAG) | 0.0679
46 | ATAGCGACTTGGGTTCTAACCTGTTGCCT (site ATAGCAACTAG) | 1.18
47 | ATAGCGACTTGGGTTCTAACCTGTTGCCT (site ATAGCCACTAG) | 0.13
48 | ATAGCGACTTGGGTTCTAACCTGTTGCCT (site ATAGCGACTAG) | 1.54
49 | ATAGCGACTTGGGTTCTAACCTGTTGCCT (site ATAGCTACTAG) | 0
50 | ATAGGAACTTGGGTTCTAACCTGTTGCCT (site ATAGGAACTAG) | 1.4
51 | ATAGGAACTTGGGTTCTAACCTGTTGCCT (site ATGGGCACTAG) | 0.0276
52 | ATAGGACCTTGGGTTCTAACCTGTTGCAG (site ATAGGACCTCT) | 2.75
53 | ATAGGACCTTGGGTTCTAACCTGTTGCAG (site ATATGTCCTCT) | 0.328
54 | ATAGGACCTTGGGTTCTAACCTGTTGCCA (site ATAGGACCTCG) | 0.653
55 | ATAGGACCTTGGGTTCTAACCTGTTGCCA (site ATAGGACCTTG) | 1.57
56 | ATAGGGACTTGGGTTCTAACCTGTTGCCT (site ATAGGGACTAG) | 2.31
57 | ATAGGGACTTGGGTTCTAACCTGTTGCCT (site GTAGCGACTAG) | 0.177
58 | ATAGGGACTTGGGTTCTAACCTGTTGCTA (site ATAAGGACTTA) | 1.97
59 | ATAGGGACTTGGGTTCTAACCTGTTGCTA (site ATACGGACTTA) | 0.291
60 | ATAGGGACTTGGGTTCTAACCTGTTGCTA (site ATAGGGACTTA) | 2.91
61 | ATAGGGACTTGGGTTCTAACCTGTTGCTA (site ATATGGACTTA) | 0.759
62 | ATAGTCCCTTGGGTTCTAACCTGTTGCCT (site ATAGTCCCTAG) | 2.25
63 | ATAGTCCCTTGGGTTCTAACCTGTTGCCT (site ATGGTCCCTAG) | 0.644
64 | ATAGTTACTTGGGTTCTAACCTGTTGCCT (site ATAGTTACTAG) | 1.73
65 | ATAGTTACTTGGGTTCTAACCTGTTGCCT (site ATGATTACTAG) | 0.129
66 | ATATACGCTTGGGTTCTAACCTGTTGCCT (site ATATACGCTAG) | 1.84

Row | Sequence | recombinant barcode read abundance (log10)
67 | ATATACGCTTGGGTTCTAACCTGTTGCCT (site CTATAGGCTAG) | 0.0578
68 | ATATCGTCTTGGGTTCTAACCTGTTGCCT (site ATATCGTCTAG) | 1.61
69 | ATATCGTCTTGGGTTCTAACCTGTTGCCT (site CTATCGTCTAG) | 0.0269
70 | ATATGCGCTTGGGTTCTAACCTGTTGCCG (site ATATGAGCTCG) | 0.108
71 | ATATGCGCTTGGGTTCTAACCTGTTGCCG (site ATATGCGCTCG) | 1.43
72 | ATATGCGCTTGGGTTCTAACCTGTTGCCG (site ATATGGGCTCG) | 0.0781
73 | ATATGCGCTTGGGTTCTAACCTGTTGCCG (site ATATGTGCTCG) | 0.262
74 | ATATGTACTTGGGTTCTAACCTGTTGCAG (site ATACGGACTCT) | 0
75 | ATATGTACTTGGGTTCTAACCTGTTGCAG (site ATATGTACTCT) | 2.1
76 | ATATGTGCTTGGGTTCTAACCTGTTGCCG (site ATATGAGCTCG) | 0.0211
77 | ATATGTGCTTGGGTTCTAACCTGTTGCCG (site ATATGCGCTCG) | 0.0242
78 | ATATGTGCTTGGGTTCTAACCTGTTGCCG (site ATATGGGCTCG) | 0.108
79 | ATATGTGCTTGGGTTCTAACCTGTTGCCG (site ATATGTGCTCG) | 1.71
80 | ATCAAGACTTGGGTTCTAACCTGTTGCCT (site ATAAAGACTAG) | 0.266
81 | ATCAAGACTTGGGTTCTAACCTGTTGCCT (site ATCAAGACTAG) | 1.42
82 | ATCAAGACTTGGGTTCTAACCTGTTGCCT (site ATGAAGACTAG) | 0.252
83 | ATCAAGACTTGGGTTCTAACCTGTTGCCT (site ATTAAGACTAG) | 0.272
84 | ATCACACCTTGGGTTCTAACCTGTTGCCT (site ATCACACCTAG) | 0.761
85 | ATCACACCTTGGGTTCTAACCTGTTGCCT (site CTCACACCTAG) | 0.102
86 | ATCACGTCTTGGGTTCTAACCTGTTGCCT (site ATCACGTCTAG) | 1.4
